The target in experiment [1] is glyceraldehyde-3-phosphate dehydrogenase (Leishmania mexicana). Nature of the experiment: Inhibitory concentration against Leishmania mexicana glyceraldehyde-3-phosphate dehydrogenase (GAPDH).
The nature of experiment [2]: Inhibitory concentration against Trypanosoma brucei glyceraldehyde-3-phosphate dehydrogenase (GAPDH).
Experiment [3] has as its system Trypanosoma cruzi. Nature of the experiment: Effective dose required against Trypanosoma cruzi amastigotes. The settings on record: read-out: ED50 (the source's name).
Experiment [4] relates to NIH3T3. Nature of the experiment: Effective dose required against Trypanosoma cruzi amastigotes in 3T3 Fibroblasts. The settings on record: Mus musculus, read-out: ED50 (the source's name). The experiment is classed as functional.
Experiment [5] concerns Trypanosoma brucei. Nature of the experiment: Effective dose required against Trypanosoma brucei in bloodstream. Type of experiment: functional. The settings on record: read-out: ED50 (the source's name).
Experiment [6] in a line: Inhibitory concentration against Trypanosoma cruzi glyceraldehyde-3-phosphate dehydrogenase (GAPDH).
Experiment [7] in a line: Inhibitory concentration against rabbit muscle glyceraldehyde-3-phosphate dehydrogenase (GAPDH). Set-up: species or system Oryctolagus cuniculus.
Experiment [8] relates to Trypanosoma cruzi. Nature of the experiment: Effective dose required against Trypanosoma cruzi amastigotes. The settings on record: read-out: ED50 (the source's name). The source holds these as a separate data set.
For experiment [9], the target named is glyceraldehyde-3-phosphate dehydrogenase (Leishmania mexicana). Nature of the experiment: Inhibitory concentration against Leishmania mexicana glyceraldehyde-3-phosphate dehydrogenase (GAPDH). The source holds these as a separate data set.

Each structure is given as a SMILES string.

In the case of `COc1cccc(C(=O)N[C@@H]2[C@H](O)[C@@H](COP(=O)(O)O)O[C@H]2n2cnc3c(NCc4cccc5ccccc45)ncnc32)c1`, the IC50 (usually the concentration that inhibits the measured activity by half) was 2 µM in experiment [1], 7 µM in experiment [2], 5 µM in [6] and more than 100 µM in experiment [7]. Moreover, the EC50 in experiment [3] worked out at 6 µM; in experiment [4], 90 µM; in experiment [5], 32 µM.

With `COc1cccc(C(=O)N[C@@H]2[C@H](O)[C@@H](CO)O[C@H]2n2cnc3c(NCc4cccc5ccccc45)ncnc32)c1`, the IC50 in experiment [2] is 25 µM; in experiment [9], 6 µM; in experiment [6], 12 µM; in experiment [7], more than 50 µM. Also, the EC50 in experiment [8] was 20 µM; in experiment [4], more than 50 µM; in [5], 30 µM.

On to `O=C(Cn1ccnc1[N+](=O)[O-])NCc1ccccc1` [BENZNIDAZOLE], for which the EC50 in experiment [4] was more than 50 µM.

Regarding `NC(=O)c1ccc[n+]([C@@H]2O[C@H](COP(=O)([O-])O)[C@@H](O)[C@H]2O)c1` [BETANMN], the IC50 in [1] and in experiment [7] was more than 500 µM throughout.

Consider `N=C(N)c1ccc(OCCCCCOc2ccc(C(=N)N)cc2)cc1` [PENTAMIDINE], for which the EC50 in experiment [5] turned out to be 0.008 µM.

(Values after ChEMBL document CHEMBL1133799, “A disubstituted NAD+ analogue is a nanomolar inhibitor of trypanosomal glyceraldehyde-3-phosphate dehydrogenase” (Bioorg Med Chem Lett, 2001).)
